The results in this text go back to article PMC10569638 (PLOS ONE, 2023).

Like-named read-outs stand apart in the source and are kept apart here.

What all share (type): cell-based
The target of assay [1] is T1, zebrafish αβδ nAChR (δ-type) (Danio rerio, UniProt Q75XT1+Q98880). The assay can be described thus: TEVC inhibition of ACh-elicited nAChR current in Xenopus oocytes, δ-type. The following applies: for Hill coefficient: inhibition, δ-type. The protocol:
(§1) The bath solution was ND96. […] Oocytes were incubated around 30 sec in the bath solution containing inhibitors of identical concentration. Recordings were performed at room temperature. Holding potential was -80 mV. Vecuronium and rocuronium were purchased from Tokyo Chemical Industry. Pancuronium and d-tubocurarine were purchased from Alomone Labs and FUJIFILM Wako Chemicals, respectively.
(§2) Fitting algorism is identical to that of ACh.

Assay [2] addresses T2, zebrafish αβδε nAChR (ε-type) (Danio rerio, UniProt A2BG85+Q75XT1+Q98880). The assay can be described thus: TEVC inhibition of ACh-elicited nAChR current in Xenopus oocytes, ε-type. To be noted: for Hill coefficient: inhibition, ε-type. The protocol: as §1, §2
Assay [3] has as its target zebrafish nAChR containing δ/ε/ε chimeric subunit (Danio rerio, UniProt A2BG85+Q75XT1+Q98880). The assay can be described thus: TEVC inhibition of nAChR current, α, β, δ + δ/ε/ε chimera. The following applies: mean ± sem. The protocol: as §1, §2
In assay [4] the target is zebrafish nAChR containing ε/δ/δ chimeric subunit (Danio rerio, UniProt A2BG85+Q75XT1+Q98880). The assay can be described thus: TEVC inhibition of nAChR current, α, β, δ + ε/δ/δ chimera. To be noted: mean ± sem. The protocol:
as §1, §2

Assay [5] addresses zebrafish nAChR containing δ/ε/δ chimeric subunit (Danio rerio, UniProt A2BG85+Q75XT1+Q98880). The assay can be described thus: TEVC inhibition of nAChR current, α, β, δ + δ/ε/δ chimera. The following applies: 100 μM ACh, mean ± sem. As to the method:
as §1, §2

Assay [6] addresses zebrafish nAChR containing ε/δ/ε chimeric subunit (Danio rerio, UniProt A2BG85+Q75XT1+Q98880). The assay can be described thus: TEVC inhibition of nAChR current, α, β, δ + ε/δ/ε chimera. The following applies: 100 μM ACh, mean ± sem. As to the method: as §1, §2
Assay [7] concerns the target zebrafish nAChR containing ε/ε/δ chimeric subunit (Danio rerio, UniProt A2BG85+Q75XT1+Q98880). The assay can be described thus: TEVC inhibition of nAChR current, α, β, δ + ε/ε/δ chimera. The following applies: 100 μM ACh, mean ± sem. As to the method:
as §1, §2

The target of assay [8] is zebrafish nAChR containing δ/δ/ε chimeric subunit (Danio rerio, UniProt A2BG85+Q75XT1+Q98880). The assay can be described thus: TEVC inhibition of nAChR current, α, β, δ + δ/δ/ε chimera. To be noted: 100 μM ACh, mean ± sem. The protocol: as §1, §2
Assay [9] has as its target T2, zebrafish αβδε nAChR (ε-type). The assay can be described thus: Voltage-dependent block tested by ramp pulses, ε-type. The following applies: 20 nM pancuronium. As to the method:
(§3) To examine possible pore blocking activity of pancuronium, the voltage-dependent block was tested by ramp pulses in the presence of pancuronium.
(§4) Fig 10 Voltage-dependent change of the conductance in the presence and absence of pancuronium. (A1), (B1), Representative current traces of the ε-type (A1) and the δ-type (B1). The black and gray traces are in the absence and the presence of 20 nM pancuronium, respectively. Pulse protocols are shown at the bottom. (A2), (B2), Representative I-V curves of the ε-type (A2) and the δ-type (B2). (A3), (B3), G-V curves of the ε-type (A3) and the δ-type (B3). Data were normalized by the conductance at -100 mV. Data are shown as mean ± sem. (N = 9 for all data).

The target of assay [10] is T1, zebrafish αβδ nAChR (δ-type). The assay can be described thus: Voltage-dependent block tested by ramp pulses, δ-type. The following applies: 20 nM pancuronium. The protocol: as §3, §4
[11] abbreviates: IC50, δ-type, current elicited by 100 μM ACh, -80 mV, mean ± sem.
The mark [12] stands for this setting: IC50, ε-type, current elicited by 100 μM ACh, -80 mV, mean ± sem.

T1 sequence (Q98880 21-456): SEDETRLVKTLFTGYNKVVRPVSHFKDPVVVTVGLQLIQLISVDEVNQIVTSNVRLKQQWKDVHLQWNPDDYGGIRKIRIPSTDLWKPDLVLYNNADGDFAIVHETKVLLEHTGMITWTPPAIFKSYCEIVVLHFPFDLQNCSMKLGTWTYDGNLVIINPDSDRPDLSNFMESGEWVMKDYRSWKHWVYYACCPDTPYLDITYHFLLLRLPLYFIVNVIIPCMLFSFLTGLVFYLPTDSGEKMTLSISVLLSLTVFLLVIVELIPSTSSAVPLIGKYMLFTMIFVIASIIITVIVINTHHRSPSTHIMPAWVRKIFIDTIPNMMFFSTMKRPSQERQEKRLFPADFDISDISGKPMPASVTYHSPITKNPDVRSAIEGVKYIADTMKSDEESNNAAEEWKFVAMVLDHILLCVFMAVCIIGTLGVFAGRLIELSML
T1 sequence (Q75XT1 22-518): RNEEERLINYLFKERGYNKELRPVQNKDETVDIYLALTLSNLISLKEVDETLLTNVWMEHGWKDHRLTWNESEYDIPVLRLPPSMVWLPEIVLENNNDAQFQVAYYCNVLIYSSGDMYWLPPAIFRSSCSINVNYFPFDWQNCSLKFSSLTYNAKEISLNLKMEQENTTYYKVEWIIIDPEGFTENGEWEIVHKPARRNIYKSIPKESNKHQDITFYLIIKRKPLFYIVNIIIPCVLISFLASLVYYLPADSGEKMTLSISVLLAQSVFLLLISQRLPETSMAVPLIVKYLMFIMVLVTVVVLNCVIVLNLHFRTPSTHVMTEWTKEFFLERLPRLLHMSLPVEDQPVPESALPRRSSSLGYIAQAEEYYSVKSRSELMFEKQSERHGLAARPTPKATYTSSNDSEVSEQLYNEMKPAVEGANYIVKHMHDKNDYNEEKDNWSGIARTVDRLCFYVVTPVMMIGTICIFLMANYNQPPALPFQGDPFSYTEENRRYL
T1 sequence (G1FMP8 23-492 partner): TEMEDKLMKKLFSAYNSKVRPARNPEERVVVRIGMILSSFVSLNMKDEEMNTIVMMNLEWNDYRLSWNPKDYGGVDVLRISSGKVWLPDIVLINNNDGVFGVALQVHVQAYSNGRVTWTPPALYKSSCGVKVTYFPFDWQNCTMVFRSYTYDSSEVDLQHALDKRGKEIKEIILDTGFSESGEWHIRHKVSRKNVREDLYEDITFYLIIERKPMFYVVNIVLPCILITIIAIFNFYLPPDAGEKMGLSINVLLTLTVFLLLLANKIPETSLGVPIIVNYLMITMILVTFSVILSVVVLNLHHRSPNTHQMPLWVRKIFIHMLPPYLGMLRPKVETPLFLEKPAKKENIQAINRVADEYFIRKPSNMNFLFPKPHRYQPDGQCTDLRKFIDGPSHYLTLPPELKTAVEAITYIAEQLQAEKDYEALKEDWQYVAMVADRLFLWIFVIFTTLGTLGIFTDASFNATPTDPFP
T2 sequence (Q98880 21-456): as the sequence (Q98880 21-456) above
T2 sequence (Q75XT1 22-518): as the sequence (Q75XT1 22-518) above
T2 sequence (A2BG85 27-517): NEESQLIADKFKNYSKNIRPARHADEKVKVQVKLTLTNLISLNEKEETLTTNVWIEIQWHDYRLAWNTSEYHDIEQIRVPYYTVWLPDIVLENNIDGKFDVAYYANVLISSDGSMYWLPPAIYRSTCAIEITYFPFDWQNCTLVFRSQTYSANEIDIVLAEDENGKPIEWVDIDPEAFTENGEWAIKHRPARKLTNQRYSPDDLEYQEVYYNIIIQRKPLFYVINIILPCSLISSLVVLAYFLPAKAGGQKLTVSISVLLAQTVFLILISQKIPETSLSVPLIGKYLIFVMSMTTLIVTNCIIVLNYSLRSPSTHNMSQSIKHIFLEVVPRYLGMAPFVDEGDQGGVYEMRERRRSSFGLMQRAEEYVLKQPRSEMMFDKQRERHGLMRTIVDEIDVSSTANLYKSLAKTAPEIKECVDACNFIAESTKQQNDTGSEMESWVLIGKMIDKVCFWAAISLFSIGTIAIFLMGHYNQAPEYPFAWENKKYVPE
T2 sequence (G1FMP8 23-492 partner): as the sequence (G1FMP8 23-492 partner) above
Chain of zebrafish nAChR containing δ/ε/ε chimeric subunit (Q75XT1 1-234, stated change not applied): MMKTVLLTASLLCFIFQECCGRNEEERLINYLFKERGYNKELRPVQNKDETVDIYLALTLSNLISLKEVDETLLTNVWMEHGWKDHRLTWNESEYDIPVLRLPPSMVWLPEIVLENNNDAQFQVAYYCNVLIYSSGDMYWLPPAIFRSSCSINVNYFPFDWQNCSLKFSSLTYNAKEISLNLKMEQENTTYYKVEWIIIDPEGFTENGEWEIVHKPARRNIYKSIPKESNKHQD
Chain of zebrafish nAChR containing δ/ε/ε chimeric subunit (A2BG85 235-517, stated change not applied): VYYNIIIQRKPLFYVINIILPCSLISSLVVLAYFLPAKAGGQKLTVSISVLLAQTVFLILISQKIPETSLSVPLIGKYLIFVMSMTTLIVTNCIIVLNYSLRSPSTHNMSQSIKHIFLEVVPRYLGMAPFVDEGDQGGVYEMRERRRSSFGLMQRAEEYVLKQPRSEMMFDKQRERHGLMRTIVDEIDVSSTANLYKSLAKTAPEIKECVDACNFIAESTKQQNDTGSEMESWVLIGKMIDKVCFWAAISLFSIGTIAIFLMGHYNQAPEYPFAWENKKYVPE
Chain of zebrafish nAChR containing δ/ε/ε chimeric subunit (Q98880 21-456, stated change not applied): as the sequence (Q98880 21-456) above
Chain of zebrafish nAChR containing δ/ε/ε chimeric subunit (Q75XT1 1-234, stated change not applied): as the sequence (Q75XT1 1-234, stated change not applied) above
Chain of zebrafish nAChR containing δ/ε/ε chimeric subunit (G1FMP8 23-492 partner): as the sequence (G1FMP8 23-492 partner) above
Chain of zebrafish nAChR containing ε/δ/δ chimeric subunit (A2BG85 1-234, stated change not applied): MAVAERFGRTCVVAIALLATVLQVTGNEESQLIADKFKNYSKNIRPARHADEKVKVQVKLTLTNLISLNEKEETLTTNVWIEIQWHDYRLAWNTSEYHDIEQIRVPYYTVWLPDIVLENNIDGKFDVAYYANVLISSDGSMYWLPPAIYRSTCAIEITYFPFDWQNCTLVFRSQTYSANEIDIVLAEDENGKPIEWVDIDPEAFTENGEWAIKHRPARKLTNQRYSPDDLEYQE
Chain of zebrafish nAChR containing ε/δ/δ chimeric subunit (Q75XT1 235-518, stated change not applied): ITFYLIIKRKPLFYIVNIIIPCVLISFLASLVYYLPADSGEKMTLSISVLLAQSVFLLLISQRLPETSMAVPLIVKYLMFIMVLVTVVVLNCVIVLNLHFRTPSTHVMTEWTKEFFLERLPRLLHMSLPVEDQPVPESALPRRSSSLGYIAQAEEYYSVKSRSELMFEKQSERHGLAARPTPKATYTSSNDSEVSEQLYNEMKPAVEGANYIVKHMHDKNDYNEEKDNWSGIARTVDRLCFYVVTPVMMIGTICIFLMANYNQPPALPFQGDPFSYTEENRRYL
Chain of zebrafish nAChR containing ε/δ/δ chimeric subunit (Q98880 21-456, stated change not applied): as the sequence (Q98880 21-456) above
Chain of zebrafish nAChR containing ε/δ/δ chimeric subunit (Q75XT1 235-518, stated change not applied): as the sequence (Q75XT1 235-518, stated change not applied) above
Chain of zebrafish nAChR containing ε/δ/δ chimeric subunit (G1FMP8 23-492 partner): as the sequence (G1FMP8 23-492 partner) above

As for `COc1cc2c3cc1Oc1cc(ccc1O)C[C@@H]1c4c(cc(OC)c(O)c4Oc4ccc(cc4)C[C@@H]3N(C)CC2)CC[N+]1(C)C` [d-tubocurarine], the IC50 amounted to 123 ± 18.7 nM in assay [1] and 112 ± 8.2 nM in assay [2]. In addition, the Hill coefficient came out at 1.1 ± 0.1 in assay [1] (100 μM ACh, mean ± sem) and 1.2 ± 0.1 in assay [2] (100 μM ACh, mean ± sem).

For the molecule `CC(=O)O[C@H]1C[C@@H]2CC[C@@H]3[C@H](CC[C@@]4(C)[C@H]3C[C@H]([N+]3(C)CCCCC3)[C@@H]4OC(C)=O)[C@@]2(C)C[C@@H]1N1CCCCC1` [vecuronium], the IC50 is 0.7 ± 0.1 nM in [1] (setting [11]) and 1.1 ± 0.2 nM in [2] (setting [12]). Also, the Hill coefficient in assay [1] (100 μM ACh, mean ± sem) was 1.0 ± 0.1; in assay [2] (100 μM ACh, mean ± sem), 1.3 ± 0.2.

With `C=CC[N+]1([C@H]2C[C@H]3[C@@H]4CC[C@H]5C[C@H](O)[C@@H](N6CCOCC6)C[C@]5(C)[C@H]4CC[C@]3(C)[C@H]2OC(C)=O)CCCC1` [rocuronium], the IC50 in [1] (setting [11]) stood at 4.2 ± 0.7 nM; in assay [2] (setting [12]), 4.7 ± 0.7 nM. Besides, the Hill coefficient in [1] (100 μM ACh, mean ± sem) is 1.1 ± 0.1; in assay [2] (100 μM ACh, mean ± sem) it was 0.7 ± 0.1.

Turning to `CC(=O)O[C@H]1C[C@@H]2CC[C@@H]3[C@H](CC[C@@]4(C)[C@H]3C[C@H]([N+]3(C)CCCCC3)[C@@H]4OC(C)=O)[C@@]2(C)C[C@@H]1[N+]1(C)CCCCC1` [pancuronium], the IC50 in assay [1] (IC50, δ-type, by 2 μM ACh, mean ± sem) is 109 ± 30.9 nM; in [1] (setting [11]) it was 116 ± 29.2 nM; in assay [2] (IC50, ε-type, by 2 μM ACh, mean ± sem), 12.5 ± 1.9 nM; in assay [2] (setting [12]) it was 15.6 ± 1 nM. The Hill coefficient in [1] (100 μM ACh, mean ± sem) is 1.3 ± 0.4; in [1] (by 2 μM ACh, mean ± sem), 1.1 ± 0.2; in assay [2] (100 μM ACh, mean ± sem) it was 1.1 ± 0.1; in assay [2] (by 2 μM ACh, mean ± sem), 1.1 ± 0.2; in assay [3] (100 μM ACh), 1.0 ± 0.0; in assay [3] (by 2 μM ACh), 1.8 ± 1.0. The Hill coefficient in assay [4] (100 μM ACh) stood at 1.7 ± 0.5; in assay [4] (by 2 μM ACh) it was 1.4 ± 0.5; in assay [5], 1.0 ± 0.1; in assay [6], 0.9 ± 0.1; in assay [7] it was 1.8 ± 0.3; in assay [8] it was 1.0 ± 0.1. Moreover, the voltage-dependent block entry is “the specific blockage of outward or inward current by pancuronium was not observed” in [9] and “voltage dependency of block was again not observed” in assay [10].
